Here are results for 2 compounds from publication PMC4225490, “Crystal structure of the γ-hydroxymuconic semialdehyde dehydrogenase from Pseudomonas sp. strainWBC-3, a key enzyme involved in para-Nitrophenol degradation” (BMC Structural Biology, 2013).

The target in assay [1] is T1, PnpE, γ-hydroxymuconic semialdehyde dehydrogenase (Pseudomonas sp. WBC-3, UniProt C1I208).
T1 construct: recombinant His-tagged in E. coli BL21(DE3), pET29b NdeI/XhoI; Ni-NTA, Source-Q, Superdex-200; homodimer (four dimers per asymmetric unit)
T1 sequence (C1I208 1-487): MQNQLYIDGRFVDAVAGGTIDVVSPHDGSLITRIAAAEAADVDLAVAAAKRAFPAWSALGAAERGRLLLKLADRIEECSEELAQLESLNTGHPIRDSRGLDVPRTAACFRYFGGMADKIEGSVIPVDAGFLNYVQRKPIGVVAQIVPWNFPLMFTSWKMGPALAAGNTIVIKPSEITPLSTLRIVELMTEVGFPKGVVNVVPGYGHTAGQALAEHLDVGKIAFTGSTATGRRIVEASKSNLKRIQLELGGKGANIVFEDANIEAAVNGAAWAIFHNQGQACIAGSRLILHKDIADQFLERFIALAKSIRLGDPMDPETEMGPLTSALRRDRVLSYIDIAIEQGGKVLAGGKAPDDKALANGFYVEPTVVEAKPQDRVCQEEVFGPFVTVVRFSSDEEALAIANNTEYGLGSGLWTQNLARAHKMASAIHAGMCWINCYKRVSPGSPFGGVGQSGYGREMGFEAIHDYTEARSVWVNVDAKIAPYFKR
The assay can be described thus: X-ray crystal structure, […] Å. The assay is classed as binding. Conditions: co-crystallised with 1 mM NAD, 0.1 M Bicine pH 8.5, 20% PEG10000, 20 °C; cofactor site.

Assay [2] concerns the target γ-hydroxymuconic semialdehyde dehydrogenase PnpE from Pseudomonas sp. strain WBC-3 (Pseudomonas sp. strain WBC-3). The assay can be described thus: crystal structure; apo-PnpE, space group P21, 2.7 Å; eight monomers in the asymmetric unit; crystals grown from 20% PEG3350, 0.2 M KNO3 at 20°C.

Consider `NC(=O)c1ccc[n+]([C@@H]2O[C@H](COP(=O)(O)OP(=O)(O)OC[C@H]3O[C@@H](n4cnc5c(N)ncnc54)[C@H](O)[C@@H]3O)[C@@H](O)[C@H]2O)c1` [NAD], for which the “X-ray crystal structure, 3.1 Å” value in assay [1] is “In the PnpE-NAD complex structure, NAD is situated in a cleft of PnpE”. The compound “γ-hydroxymuconic semialdehyde dehydrogenase PnpE from Pseudomonas sp. strain WBC-3 (enzyme)” came in with a stoichiometry N in assay [2] of 2.

For orientation: stoichiometry N means a count of units in the complex or per binding partner.
